Like-named read-outs stand apart in the source and are kept apart here.
Key:
[1] = system: drug-sensitive leukemia CCRF-CEM cells; test: Resazurin reduction assay, cytotoxicity on CCRF-CEM; type: cell-based; details: Homo sapiens, 72 h, read-out: IC50 values of compounds / doxorubicin
Experimental: (§1) The cell lines used in the present work, their origins and their treatments were previously reported. They include drug-sensitive leukemia CCRF-CEM cells, its multidrug-resistant subline CEM/ADR5000 cells, breast cancer MDA-MB-231-pcDNA3 cells, its resistant subline MDA-MB-231-BCRP clone 23) cells, colon HCT116 (p53^+/+) cancer cells, its knockout clones HCT116 (p53^−/−), glioblastoma U87MG cells, its resistant subline U87MG.ΔEGFR cells and normal AML12 hepatocytes. […] Breast cancer cells, transduced with control vector (MDA-MB-231-pcDNA3) or with cDNA for the breast cancer resistance protein BCRP (MDA-MB-231-BCRP clone 23), were maintained under standard conditions as described above for CCRF-CEM cells. Human wild-type HCT116 (p53^+/+) colon cancer cells as well as knockout clones HCT116 (p53^−/−) derived by homologous recombination were a generous gift from Dr. B. Vogelstein and H. Hermeking (Howard Hughes Medical Institute, Baltimore, MD). Human glioblastoma multiforme U87MG cells (non-transduced) and U87MG cell line transduced with an expression vector harboring an epidermal growth factor receptor (EGFR) gene with a genomic deletion of exons 2 through 7 (U87MG.ΔEGFR) were kindly provided by Dr. W. K. Cavenee (Ludwig Institute for Cancer Research, San Diego, CA). MDA-MB-231-BCRP, U87MG.ΔEGFR and HCT116 (p53^−/−) were maintained in DMEM medium containing 10 % FBS (Invitrogen) and 1 % penicillin (100 U/mL)-streptomycin (100 μg/mL) (Invitrogen) and were continuously treated with 800 ng/mL and 400 μg/mL geneticin, respectively. Normal AML12 heptocytes were obtained from the American Type Culture Collection (ATCC, USA). The above medium without geneticin was used to maintain MDA-MB-231, U87MG, HCT116 (p53^+/+) and AML12 cell lines. The cells were passaged twice weekly. All experiments were performed with cells in the logarithmic growth phase.
(§2) The cytotoxicity of the tested samples was performed by resazurin reduction assay as we previously described. Briefly, adherent cells at 1 × 10^4 cells were allowed to attach overnight and were then treated with different concentrations of the studied samples. For suspension cells, aliquots of 2 × 10^4 cells per well were seeded in 96-well-plates in a final volume of 200 μL. […] After 72 h incubation and resazurin (Sigma-Aldrich, Schnelldorf, Germany) staining, fluorescence was measured on an Infinite M2000 Pro™ plate reader (Tecan, Crailsheim, Germany) using an excitation wavelength of 544 nm and an emission wavelength of 590 nm. Each assay was done at least two times, with six replicates each. IC50 values represent the sample concentration required to inhibit 50 % of cell proliferation and were calculated from a calibration curve by linear regression using Microsoft Excel.

[2] = system: multidrug-resistant leukemia CEM/ADR5000 cells; test: Resazurin reduction assay, cytotoxicity on CEM/ADR5000; type: cell-based; details: for IC50: Homo sapiens, read-out: IC50 values of compounds / doxorubicin; for degree of resistance: ratio IC50 CEM/ADR5000 / IC50 CCRF-CEM
Experimental: as §1, §2

[3] = system: breast cancer MDA-MB-231-pcDNA3 cells; test: Resazurin reduction assay, cytotoxicity on MDA-MB231; type: cell-based; details: read-out: IC50 values of compounds / doxorubicin
Experimental: as §1, §2

[4] = system: MDA-MB-231-BCRP clone 23 cells; test: Resazurin reduction assay, cytotoxicity on MDA-MB231/BCRP; type: cell-based; details: for IC50: MDA-MB-231/BCRP, 72 h, mean ± SD; for degree of resistance: ratio IC50 MDA-MB231/BCRP / IC50 MDA-MB231
Experimental: (§3) The cell lines used in the present work, their origins and their treatments were previously reported. […] Human wild-type HCT116 (p53^+/+) colon cancer cells as well as knockout clones HCT116 (p53^-/-) derived by homologous recombination were a generous gift from Dr. B. […] (Howard Hughes Medical Institute, Baltimore, MD). Human glioblastoma multiforme U87MG cells (non-transduced) and U87MG cell line transduced with an expression vector harboring an epidermal growth factor receptor (EGFR) gene with a genomic deletion of exons 2 through 7 (U87MG.ΔEGFR) were kindly provided by Dr. W. K. Cavenee (Ludwig Institute for Cancer Research, San Diego, CA). MDA-MB-231-BCRP, U87MG.ΔEGFR and HCT116 (p53^-/-) were maintained in DMEM medium containing 10 % FBS (Invitrogen) and 1 % penicillin (100 U/mL)-streptomycin (100 μg/mL) (Invitrogen) and were continuously treated with 800 ng/mL and 400 μg/mL geneticin, respectively. Normal AML12 heptocytes were obtained from the American Type Culture Collection (ATCC, USA). The above medium without geneticin was used to maintain MDA-MB-231, U87MG, HCT116 (p53^+/+) and AML12 cell lines. The cells were passaged twice weekly. All experiments were performed with cells in the logarithmic growth phase. […] Briefly, adherent cells at 1 × 10^4 cells were allowed to attach overnight and were then treated with different concentrations of the studied samples. For suspension cells, aliquots of 2 × 10^4 cells per well were seeded in 96-well-plates in a final volume of 200 μL. […] After 72 h incubation and resazurin (Sigma-Aldrich, Schnelldorf, Germany) staining, fluorescence was measured on an Infinite […]TM plate reader (Tecan, Crailsheim, Germany) using an excitation wavelength of 544 nm and an emission wavelength of 590 nm. Each assay was done at least two times, with six replicates each.

[5] = system: HCT116 (p53+/+) colon cancer cells; test: Resazurin reduction assay, cytotoxicity on HCT116 (p53+/+); type: cell-based; details: Homo sapiens, read-out: IC50 values of compounds / doxorubicin
Experimental: as §1, §2

[6] = system: HCT116 (p53−/−) colon cancer cells; test: Resazurin reduction assay, cytotoxicity on HCT116 (p53-/-); type: cell-based, human; details: for IC50: Homo sapiens, read-out: IC50 values of compounds / doxorubicin; for degree of resistance: ratio IC50 HCT116 (p53−/−) / IC50 HCT116 (p53+/+)
Experimental: as §3

[7] = system: glioblastoma multiforme U87MG cells; test: Resazurin reduction assay, cytotoxicity on U87MG; type: cell-based; details: Homo sapiens, U-87 MG, 72 h, read-out: IC50 values of compounds / doxorubicin
Experimental: as §1, §2

[8] = system: U87MG.ΔEGFR cells; test: Resazurin reduction assay, cytotoxicity on U87MG.ΔEGFR; type: cell-based, human; details: for IC50: Homo sapiens, 72 h, read-out: IC50 values of compounds / doxorubicin; for degree of resistance: ratio IC50 U87MG.ΔEGFR / IC50 U87MG
Experimental: as §1, §2

[9] = system: normal AML12 hepatocytes; test: Resazurin reduction assay, cytotoxicity on normal AML12 hepatocytes; type: cell-based; details: Mus musculus, read-out: IC50 values of compounds / doxorubicin
Experimental: as §1, §2

[10] = system: eight tested cancer cell lines; test: Resazurin reduction assay, summary over the panel of tested cell lines; type: cell-based
Experimental: as §1, §2

[11] = system: leukemia CCRF-CEM cells; test: Preliminary cytotoxicity study at a single concentration on CCRF-CEM; type: cell-based; details: doxorubicin 10 μM, positive control
Experimental: Briefly, adherent cells at 1 × 10^4 cells were allowed to attach overnight and were then treated with different concentrations of the studied samples. For suspension cells, aliquots of 2 × 10^4 cells per well were seeded in 96-well-plates in a final volume of 200 μL. […] Each assay was done at least two times, with six replicates each.

[12] = Homo sapiens, MDA-MB-231, 72 h, MDA-MB231, 72 h, mean ± SD
[13] = MDA-MB231/BCRP, read-out: IC50 values of compounds / doxorubicin
[14] = HCT-116, HCT116 (p53+/+), 72 h, mean ± SD
[15] = HCT-116, HCT116 (p53−/−), 72 h, mean ± SD
[16] = all eight tested cancer cell lines, read-out: IC50 over all tested cell lines
[17] = read-out: IC50 values of compounds / doxorubicin, MDA-MB231/BCRP

| SMILES | IC50 [10, 16] | IC50 ([1]; mean ± SD) | IC50 ([2]; CEM/ADR5000, 72 h, mean ± SD) | IC50 [3, 12] | IC50 [4, 13] | IC50 [5, 14] | IC50 [6, 15] | IC50 ([7]; U87MG, mean ± SD) | IC50 ([8]; U87MG.ΔEGFR, mean ± SD) | IC50 ([9]; AML12 normal hepatocytes, 72 h) | degree of resistance [2] | degree of resistance [6] | degree of resistance [8] | degree of resistance [4] | also measured |
| --- | --- | --- | --- | --- | --- | --- | --- | --- | --- | --- | --- | --- | --- | --- | --- |
| CC(=O)O[C@H]1CC[C@]2(C)[C@H]3C(=O)C=C4[C@@H]5[C@@H](C)[C@H](C)CC[C@]5(C)CC[C@@]4(C)[C@]3(C)CC[C@H]2C1(C)C [Compound 1, 3-acetoxy-11-oxo-urs-12-ene] | > 82.9 µM | > 82.9 µM | > 82.9 µM | > 82.9 µM | > 82.9 µM | > 82.9 µM | > 82.9 µM | > 82.9 µM | > 82.9 µM | > 82.9 µM |  |  |  |  |  |
| O=C(O)/C=C/c1ccc(O)cc1 [Compound 2, p-coumaric acid] | > 244 µM | > 244 µM | > 244 µM | > 244 µM |  | > 244 µM | > 244 µM | > 244 µM | > 244 µM | > 244 µM |  |  |  |  | IC50 [4, 17]: > 244 µM |
| Oc1ccc(/C=C/c2cc(O)cc(O)c2)cc1 [Compound 4, resveratrol] |  | 28.2 ± 1.32 µM | 57.4 ± 3.67 µM | < 23 µM |  | 73.7 ± 5.67 µM | > 175 µM | 76.6 ± 4.92 µM | 28.4 ± 2.06 µM | > 175 µM | 2.04 | > 2.38 | 0.37 |  | IC50 ([3]; MDA-MB231, 72 h, mean ± SD): 19.9 ± 1.45 µM; IC50 ([10]; seven out of eight cell lines, read-out: IC50): < 175 µM |
| C=C[C@H]1[C@H](O[C@@H]2O[C@H](CO)[C@@H](O)[C@H](O)[C@H]2O)OC=C2C(=O)N3CCc4c([nH]c5ccccc45)[C@@H]3C[C@H]21 [Compound 6, strictosamide] |  |  |  |  | 78.3 ± 6.22 µM |  |  |  |  |  | > 1.04 |  |  | < 0.97 | IC50 [1]: 77.1 ± 5.87 µM; IC50 ([2]; ADR5000, 72 h): > 80.3 µM; IC50 ([3]; Homo sapiens, MDA-MB-231, 72 h): > 80.3 µM; IC50 ([5]; HCT-116, 72 h): > 80.3 µM; IC50 ([6]; HCT-116, 72 h): > 80.3 µM; IC50 [7]: > 80.3 µM; IC50 [8]: > 80.3 µM; IC50 ([9]; AML12, 72 h): > 80.3 µM; IC50 ([10]; read-out: IC50): < 80.3 µM |
| COc1cccc2c1C(=O)c1c(O)c3c(c(O)c1C2=O)C[C@@](O)(C(=O)CO)C[C@@H]3O[C@H]1C[C@H](N)[C@H](O)[C@H](C)O1 [doxorubicin, Doxorubicin, reference compound] |  | 0.2 ± 0.06 µM |  |  |  |  |  | 1.06 ± 0.15 µM | 6.11 ± 0.57 µM | > 73.6 µM | 975.60 | 2.88 | 5.76 | 7.12 | IC50 ([3]; Homo sapiens, MDA-MB-231, MDA-MB231, 72 h, mean ± SD): 1.1 ± 0.28 µM; IC50 ([5]; HCT-116, 72 h): 1.41 ± 0.29 µM; IC50 ([6]; HCT-116, 72 h): 4.06 ± 0.07 µM; Growth percentage of CCRF-CEM leukemia cells [11]: 13.6% |

Continued, in another order:

| IC50 [10, 16] | SMILES | IC50 ([1]; mean ± SD) | IC50 ([2]; CEM/ADR5000, 72 h, mean ± SD) | IC50 [3, 12] | IC50 [4, 13] | IC50 [5, 14] | IC50 [6, 15] | IC50 ([7]; U87MG, mean ± SD) | IC50 ([8]; U87MG.ΔEGFR, mean ± SD) | IC50 ([9]; AML12 normal hepatocytes, 72 h) | degree of resistance [2] | degree of resistance [6] | degree of resistance [8] | degree of resistance [4] | also measured |
| --- | --- | --- | --- | --- | --- | --- | --- | --- | --- | --- | --- | --- | --- | --- | --- |
| > 171 µM | COC(=O)CC(O)(CC(=O)OC)C(=O)OC [Compound 3, citric acid trimethyl ester] | > 171 µM | > 171 µM | > 171 µM | > 171 µM | > 171 µM | > 171 µM | > 171 µM | > 171 µM | > 171 µM |  |  |  |  |  |
| < 100 µM | OC[C@H]1O[C@@H](Oc2cc(O)cc(/C=C/c3ccc(O)cc3)c2)[C@H](O)[C@@H](O)[C@@H]1O [Compound 5, resveratrol β-D-glucopyranoside] | 25.1 ± 2.48 µM | 39.9 ± 2.91 µM | 97.6 ± 7.6 µM |  | 63.8 ± 4.61 µM | 47 ± 4.94 µM | 55.6 ± 3.73 µM | 47.6 ± 3.29 µM | > 103 µM | 1.59 | 0.74 | 0.86 | 0.98 | IC50 [4, 17]: 95.6 ± 8.17 µM |

— article PMC4559964, “Cytotoxicity of selected Cameroonian medicinal plants and Nauclea pobeguinii towards multi-factorial drug-resistant cancer cells” (BMC Complementary and Alternative Medicine, 2015)
